# Paper PMC9132363 (Journal of Medicinal Chemistry, 2022)
# Tests used:
# ROCK-II (ROKa) = ROCK-II (ROKa) (Rattus norvegicus, UniProt Q62868); assay: ROCK inhibition studies (33P-ATP, Long S6 substrate peptide); type: biochemical
# Method: ROCK-II (ROKa) (5–20 mU diluted in 50 mM Tris pH 7.5, 0.1 mM EGTA, 0.1% 2-mercaptoethanol, and 1 mg/mL BSA) was assayed against the Long S6 substrate peptide ([…]) in a final volume of 25.5 μL containing 50 mM Tris pH 7.5, 0.1 mM EGTA, 30 μM Long S6 substrate peptide, 10 mM magnesium acetate, and 0.02 mM [33P-g-ATP] (50–1000 cpm/pmol) and incubated for 30 min at room temperature. Assays were stopped by addition of 5 μL of 0.5 M (3%) orthophosphoric acid and then harvested onto P81 Unifilter plates with a wash buffer of 50 mM orthophosphoric acid.
# [1] = DPPH radical scavenging assay; type: physicochemical
# Method: The antioxidant activity was determined by the 2,2-diphenyl-1-picrylhydrazyl hydrate (DPPH) assay.[65]−[67] All the measurements were performed in an 80% MeOH solution, with the final reaction volume being 3 mL. A stock of DPPH solution in DMSO (10^–2 M) was prepared and stored at −20 °C, and the same procedure was performed with the antioxidant solution. Then, the DPPH stock solution was diluted to 2 mL with a final concentration of 150 μM (final volume of 3 mL and final concentration of 100 μM). The antioxidant stock was sequentially diluted to 1 mL at 3, 9, 30, 90, and 300 μM (final volume of 3 mL and final concentrations of 1, 3, 10, 30, and 100 μM). The mixture was incubated at room temperature for 30 min. Once this time had passed, the absorbance was measured in a spectrophotometer at 517 nm. Trolox, caffeic acid, and ferulic acid were used as a standard (1, 3, 10, 30, and 100 μM final concentrations). A blank using 80% MeOH solution instead of the corresponding antioxidant was used in each assay. Two independent measurements of each sample were performed. Data were processed using Origin software, and sigmoidal fitting according to the DoseResp function was performed to extrapolate the IC50 (μM) of each antioxidant.
# NRF2 in SH-SY5Y cells = assay: Subcellular fractionation and immunoblot of NRF2; type: cell-based; conditions: 20 μM, 1, 2 and 4 h
# Method: SH-SY5Y cells were seeded in p100 plates (1 × 10^6 cells/plate) and treated with 20 μM compound 1d. Cytosolic and nuclear fractions were prepared as described previously.[71] Briefly, cells were washed with cold PBS and harvested by centrifugation at 1100 rpm for 10 min. The cell pellet was resuspended in 3 pellet volumes of cold buffer A (20 mm HEPES, pH 7.0, 0.15 mm EDTA, 0.015 mm EGTA, 10 mm KCl, 1% Nonidet P-40, 1 mm phenylmethylsulfonyl fluoride, 20 mm NaF, 1 mm sodium pyrophosphate, 1 mm sodium orthovanadate, and 1 μg/mL leupeptin) and incubated in ice for 30 min. Then, the homogenate was centrifuged at 500g for 5 min. The supernatants were taken as the cytosolic fraction. The nuclear pellet was resuspended in 5 volumes of cold buffer B (10 mm HEPES, pH 8.0, 0.1 mm EDTA, 0.1 mm NaCl, 25% glycerol, 1 mm phenylmethylsulfonyl fluoride, 20 mm NaF, 1 mm sodium pyrophosphate, 1 mm sodium orthovanadate, and 1 μg/mL leupeptin). After centrifugation in the same conditions indicated above, the nuclei were resuspended in loading buffer containing 0.5% SDS. […]
# (§1) Whole cell lysates were prepared in RIPA-buffer (25 mM Tris-HCl, pH 7.6, 150 mM NaCl, 1 mM EGTA, 1% Igepal, 1% sodium deoxycholate, 0.1% SDS, 1 mM PSMF, 1 mM Na3VO4, 1 mM NaF, 1 μg/mL aprotinin, 1 μg/mL leupeptin, and 1 μg/mL pepstatin). […] Immunoblots were analyzed as described previously.[48] […]
# [2] = test system: HMOX1/HO-1 and NQO1 in SH-SY5Y cells; assay: NRF2 signature (qRT-PCR and immunoblot) in SH-SY5Y cells; type: cell-based
# Method: Whole cell lysates were prepared in RIPA-buffer (25 mM Tris-HCl, pH 7.6, 150 mM NaCl, 1 mM EGTA, 1% Igepal, 1% sodium deoxycholate, 0.1% SDS, 1 mM PSMF, 1 mM Na3VO4, 1 mM NaF, 1 μg/mL aprotinin, 1 μg/mL leupeptin, and 1 μg/mL pepstatin). Whole cell lysates, cytosolic and nuclear fractions containing 25 μg of whole proteins from SH-SY5Y, or lymphoblast-treated cells were loaded for SDS-PAGE electrophoresis. Immunoblots were analyzed as described previously.[48] The primary antibodies used are described in Supporting Information Table S4.
# (§2) Total RNA extraction, reverse transcription, and quantitative polymerase chain reaction (PCR) were done as detailed in previous articles.[72] Primer sequences are shown in Supporting Information Table S5. Data analysis was based on the ΔΔCT method with normalization of the raw data to housekeeping genes (Applied Biosystems). All PCRs were performed in triplicates.
# Keap1–/– MEFs = assay: qRT-PCR of NRF2 target genes in KEAP1-deficient MEFs; type: cell-based, mouse; conditions: 20 μM, 4, 8 and 24 h
# Method: Human embryonic kidney (HEK) 293T cells were grown in Dulbecco’s modified Eagle’s medium (DMEM) supplemented with 10% fetal bovine serum and 80 μg/mL gentamycin. Transient transfections were performed with calcium phosphate using reagents from Sigma. The Keap1^–/– mouse embryo fibroblasts (MEFs) and their corresponding wild-type Keap1^+/+ MEFs were kindly provided by Dr. Ken Itoh (Department of Stress Response Science, Center for Advanced Medical Science, Hirosaki University, Japan). MEFs were grown in DMEM supplemented with 10% fetal bovine serum, 1% penicillin/streptomycin, and 2 mm L-glutamine. SH-SY5Y cells were grown in DMEM and Ham’s F12 supplemented with 10% fetal bovine serum (FBS) and 1% penicillin/streptomycin. The medium was changed to serum-free DMEM without antibiotics 16 h before treatments. DMF (cat. no. 242926, Sigma-Aldrich) was used at 20 μM for 16 h.
# as §2
# sALS lymphoblasts = assay: NRF2 pathway in sALS lymphoblasts; type: cell-based, human; conditions: 20 μM, 24 h, vs untreated sALS lymphoblasts
# Source text: Peripheral blood samples of all the individuals enrolled in this study were collected after written informed consent of the patients or their relatives (demographic information is presented in Table 9) to establish the lymphoblastoid cell lines (LCLs), by infecting peripheral blood lymphocytes with the Epstein–Barr virus (EBV), as previously described.[68] Participants or their relatives gave written informed consent. This study was approved by the Hospital Doce de Octubre and the Spanish Council of Higher Research Institutional Review Boards. All patients were diagnosed by applying the revised El Escorial criteria.[69] […] Genetic testing for SOD1, TARDBP, FUS, and C9ORF72 was performed in all cases.
# LCLs were grown in suspensions in T flasks, in an RPMI-1640 medium containing 2 mM L-glutamine, 100 μg/mL streptomycin/penicillin, and 10% (v/v) fetal bovine serum (FBS) and maintained in a humidified 5% CO2 incubator at 37 °C.
# as §1
# Total RNA extraction, reverse transcription, and quantitative polymerase chain reaction (PCR) were done as detailed in previous articles.[72] […]
# [3] = molecular target: human serum albumin (HSA) (Homo sapiens, UniProt P02768); assay: biochemical
# Chain of human serum albumin (HSA) (P02768 25-609): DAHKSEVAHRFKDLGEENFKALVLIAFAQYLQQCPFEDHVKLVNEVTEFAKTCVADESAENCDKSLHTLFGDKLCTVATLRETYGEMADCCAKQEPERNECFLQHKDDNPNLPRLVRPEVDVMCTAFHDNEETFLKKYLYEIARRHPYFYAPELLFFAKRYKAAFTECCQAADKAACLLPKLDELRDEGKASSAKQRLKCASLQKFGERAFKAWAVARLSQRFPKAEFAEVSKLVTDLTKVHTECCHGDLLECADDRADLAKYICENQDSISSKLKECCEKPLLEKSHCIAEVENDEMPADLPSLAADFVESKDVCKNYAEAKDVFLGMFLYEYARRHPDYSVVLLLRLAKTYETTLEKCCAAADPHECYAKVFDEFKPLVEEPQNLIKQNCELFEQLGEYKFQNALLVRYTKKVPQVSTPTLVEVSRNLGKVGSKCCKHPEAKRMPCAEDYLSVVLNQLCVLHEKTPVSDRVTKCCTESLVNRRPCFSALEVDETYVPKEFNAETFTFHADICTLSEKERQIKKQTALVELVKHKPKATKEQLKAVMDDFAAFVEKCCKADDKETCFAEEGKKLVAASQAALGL
# Method: After each addition, the mixture was incubated at rt for 5 min, and then, the emission fluorescence spectra of HAS (λ = 280 nm) were measured using a Fluorometer Max-4P (Horiba Jobin Yvon). The data obtained were further processed using the Stern–Volmer and Scatchard models in GraphPad Prism 8.0 software.
# Chain of ROCK-II (ROKa) (Q62868 2-543 limits assumed): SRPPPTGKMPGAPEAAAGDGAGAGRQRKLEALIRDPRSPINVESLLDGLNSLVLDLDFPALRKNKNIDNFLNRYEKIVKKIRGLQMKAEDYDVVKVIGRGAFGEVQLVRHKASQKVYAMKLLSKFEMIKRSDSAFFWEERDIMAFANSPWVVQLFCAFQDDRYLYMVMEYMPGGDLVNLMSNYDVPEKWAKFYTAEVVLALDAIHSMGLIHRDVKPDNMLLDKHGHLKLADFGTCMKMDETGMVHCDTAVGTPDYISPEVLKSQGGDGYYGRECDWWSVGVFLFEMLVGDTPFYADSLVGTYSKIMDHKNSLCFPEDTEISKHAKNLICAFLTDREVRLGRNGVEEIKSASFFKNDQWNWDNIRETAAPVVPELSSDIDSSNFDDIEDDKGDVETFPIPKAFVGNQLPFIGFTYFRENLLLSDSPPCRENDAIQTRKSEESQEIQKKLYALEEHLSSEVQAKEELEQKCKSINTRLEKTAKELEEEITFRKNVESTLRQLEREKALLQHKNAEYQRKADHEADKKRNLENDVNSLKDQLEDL
compound,measurement,setting,value
"O=C(CCc1ccc(O)c(O)c1)N1CCCN(S(=O)(=O)c2cccc3cnccc23)CC1 [Compound 1d, 3-(3,4-Dihydroxyphenyl)-1-(4-(isoquinolin-5-ylsulfonyl)-1,4-diazepan-1-yl)propan-1-one]",remaining activity at 10 µM,"ROCK-II (ROKa); 0.5 h, 10 microM, supplementary CSV, read-out: ROCK2 activity @ 10microM",14.6 ± 4.1%
same,IC50,"ROCK-II (ROKa); Table 3, read-out: ROCK2 inhibition IC50",0.73 µM
same,ROCK2 inhibition potency compared with fasudil,ROCK-II (ROKa); in words,potency similar to the reference compound
same,EC50,"[1]; 80% MeOH, 30 min, 517 nm, read-out: Radical scavenging activity EC50 (DPPH method)",9.68 µM
same,IC50,[1]; supplementary CSV,10.4 ± 0.7 µM
same,subcellular distribution of NRF2,NRF2 in SH-SY5Y cells,induced a significant accumulation of NRF2 in the nucleus
same,mRNA levels of HMOX1 and NQO1,"[2]; 20 μM, 4, 8 and 24 h",increased the mRNA levels
same,protein levels of HO-1 and NQO1,"[2]; 20 μM, maximum after 24 h",increase in the protein levels
same,expression of HMOX1,Keap1–/– MEFs,to a lesser extent than in the wild-type cells
same,expression of NQO1,Keap1–/– MEFs,not capable of inducing
same,NRF2 and activity of its signaling pathway,sALS lymphoblasts,did not produce a significant increase
same,Kd,[3],1.26 µM
